Like-named read-outs stand apart in the source and are kept apart here.
Tests used:
RD-ES = assay: Proliferation assay, CellTiter-Glo, 72 hour; format: cell-based; conditions: Ewing's sarcoma cell line, read-out: Inhibition of proliferation, RD-ES
[1] = test system: RNAP II CTD phosphorylation; assay: RNAP II CTD phosphorylation immunoblot in Loucy cells (dose response, time course, washout); format: cell-based; conditions: for IC50: 4 hours
Experimental: Following the treatment, the cells were washed 2-fold with PBS. Fresh medium containing no inhibitors were added back to the cells. The cells were lysed at indicated time points, and the lysates were probed for RNAP II CTD phosphorylation.
CDK7 exerts its regulatory control of transcription largely by phosphorylating RNAP II CTD, which promotes active transcription. […] Reduction of Ser-5 phosphorylation was seen only at higher concentrations.
Covalent kinase inhibitors have several characteristics that functionally differentiate themselves from their reversible counterparts. […] Washout of compound I-23R, following a 4-hour administration led to the recovery of RNAP II CTD phosphorylation within 1 hour (FIG. 2C). […] This phenomenon was also visible using in vitro kinase reactions comparing pre-incubation of compound I-23 with compound I-23 introduced concurrently with ATP.

MLK3 = MLK3 (Homo sapiens (Human), UniProt Q16584); assay: Life Technologies LanthaScreen Eu kinase assay, MLK3; format: binding; conditions: read-out: Calculated IC50, MLK3
Chain of MLK3 (Q16584 whole entry): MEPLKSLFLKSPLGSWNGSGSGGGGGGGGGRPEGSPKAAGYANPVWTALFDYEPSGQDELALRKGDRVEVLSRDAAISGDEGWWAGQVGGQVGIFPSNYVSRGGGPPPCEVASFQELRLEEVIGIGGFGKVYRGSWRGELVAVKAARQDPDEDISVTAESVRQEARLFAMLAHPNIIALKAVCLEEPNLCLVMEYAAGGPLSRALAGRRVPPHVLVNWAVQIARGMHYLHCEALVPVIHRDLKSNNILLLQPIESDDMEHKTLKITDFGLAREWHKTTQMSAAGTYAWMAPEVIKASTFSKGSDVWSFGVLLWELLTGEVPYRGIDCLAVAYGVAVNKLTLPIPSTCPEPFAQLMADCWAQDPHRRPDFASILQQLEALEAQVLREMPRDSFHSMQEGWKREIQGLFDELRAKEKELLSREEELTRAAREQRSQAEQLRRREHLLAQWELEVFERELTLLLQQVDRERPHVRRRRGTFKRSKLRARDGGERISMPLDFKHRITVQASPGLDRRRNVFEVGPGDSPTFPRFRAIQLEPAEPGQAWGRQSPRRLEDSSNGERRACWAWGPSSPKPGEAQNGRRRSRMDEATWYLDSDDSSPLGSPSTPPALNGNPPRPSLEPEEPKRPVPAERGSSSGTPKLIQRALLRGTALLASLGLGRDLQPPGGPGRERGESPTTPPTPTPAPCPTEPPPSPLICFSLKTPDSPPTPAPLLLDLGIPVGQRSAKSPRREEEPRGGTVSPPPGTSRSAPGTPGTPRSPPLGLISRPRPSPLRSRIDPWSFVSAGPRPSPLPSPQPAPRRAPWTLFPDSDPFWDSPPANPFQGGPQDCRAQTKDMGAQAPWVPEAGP

Jurkat = Jurkat (proliferation, CellTiter-Glo); format: cell-based; conditions: read-out: Calculated IC50, Jurkat
MCL-1 protein = assay: Immunoblot of BCL-2 family proteins in Loucy cells; format: cell-based; conditions: after 12 hours
Experimental: (§1) At indicated time points, cellular lysates were harvested at the indicated times points and immunoblotted for the indicated proteins. […] Anti-proliferative effects were determined using cell titer glo analysis. […] Anti-proliferative effects were determined using alamarBlue® analysis. […] Anti-proliferative effects were determined using cell titer glo analysis. […] Dose: i.v. 1 mg/kg and p.o. 10 mg/kg.
(§2) Consistent with its covalent inhibitory mechanism, similar results were seen over the same time span following washout (FIGS. 6A to 6B).

BCL-XL = assay: Immunoblot of BCL-2 family proteins in Loucy cells; format: cell-based; conditions: 12 to 48 hours
Experimental: as §1, §2

[2] = test system: Jurkat and Loucy leukemia cell lines; assay: Anti-proliferative effect, cell titer glo, 72 hours; format: cell-based
Experimental: Precipitated proteins were washed and probed for CDK7.
Proliferation assays were conducted over a 48-72 hour time period (as noted). […] Cancer cell line profiling was performed over a 72 time period using Alamar Blue reagent.
The phenylamino-pyrimidine (PAP) core scaffold is a “privileged” ATP-site directed pharmacophore with the most famous example being imatinib, a Bcr-Abl inhibitor approved to treat several cancers including Chronic Myelogenous Leukemia. Numerous PAP derivatives have been reported as potent inhibitors of various CDKs; however, efforts to achieve greater selectivity amongst the CDK family members have been hindered by the high sequence and structural similarity of CDKs. […] In an effort to explore broadly which CDKs might be targetable by a covalent inhibitor, a library of acrylamide-modified PAPs was built, and the library was subject to cell proliferation as well broad kinase selectivity profiling using the Kinativ chemical proteomics approach.

RS4-11 = assay: Proliferation assay, CellTiter-Glo, 72 hour; format: cell-based; conditions: blood cancer cell line, read-out: Inhibition of proliferation, RS4-11
RNAP II occupancy = assay: RNAP II ChIP-seq in Jurkat cells; format: cell-based, human; conditions: 250 nM for 6 hours
Experimental: After the indicated treatment time, cells were crosslinked for 10 minutes at room temperature by the addition of one-tenth of the volume of 11% formaldehyde solution (11% formaldehyde, 50 mM Hepes (pH 7.3), 100 mM NaCl, 1 mM EDTA (pH 8.0), 0.5 mM EGTA (pH 8.0)) to the growth media followed by two washes with PBS. Following the final PBS wash, supernatant was aspirated, and the cell pellet was flash frozen in liquid nitrogen. Frozen crosslinked cells were stored at −80° C.
50 μl of Dynal magnetic beads (Sigma) were blocked with 0.5% BSA (w/v) in PBS. Magnetic beads were bound with 5 μg of the indicated antibody. Antibodies used are as follows: Total RNAP II (Rpb1 N-terminus): Santa Cruz sc-899; CDK7: Bethyl A300-405A. Crosslinked cells were lysed with lysis buffer 1 (50 mM Hepes (pH 7.3), 140 mM NaCl, 1 mM EDTA, 10% glycerol, 0.5% NP-40, and 0.25% Triton X-100) and washed with lysis buffer 2 (10 mM Tris-HCl (pH 8.0), 200 mM NaCl, 1 mM EDTA (pH 8.0) and 0.5 mM EGTA (pH 8.0)). […]
Illumina sequencing libraries were generated, and data were processed according to Lin et al., Cell (2012) 151:56-67. […] These criteria preserved only reads that mapped uniquely to the genome with 1 or fewer mismatches. […]

IC50 ([1]; read-out: Cellular IC50 for RNAP II CTD Ser-2 phosphorylation): ~20 nM
IC50 ([1]; read-out: Cellular IC50 for RNAP II CTD Ser-7 phosphorylation): ~4 nM
IC50 (MLK3): < 100 nM
IC50 (Jurkat): < 100 nM
IC50 (RS4-11): < 500 nM
Compound: CN(C)C/C=C/C(=O)Nc1ccc(C(=O)Nc2cccc(Nc3ncc(Cl)c(-c4c[nH]c5ccccc45)n3)c2)cc1 [Formula I-23]
IC50 (RD-ES): < 500 nM
Time to complete inhibition of target (inactivation of CDK7, RNAP II CTD phosphorylation) ([1]; treated 0 to 4 hours): 3 to 4 h
Recovery of RNAP II CTD phosphorylation after inhibitor washout ([1]; washout following a 4-hour administration): did not restore normal CTD phosphorylation levels
Concentration sufficient to elicit a reduction in MCL-1 protein levels (MCL-1 protein): ≤ 100 nM
Reduction of BCL-XL protein levels (BCL-XL): not reduced even at higher concentrations
Inhibition of proliferation of Jurkat and Loucy leukemia cell lines [2]: potently inhibits proliferation
RNAP II occupancy at the promoter proximal pause site (RNAP II occupancy): drastically diminished
